Values joined by “and” are separate entries in the source; they are usually repeats but may differ in a detail not shown here. Equal values may be shown once. Toxic doses and inconclusive results are not listed. How the source made its calls: active means survival T/C of 150% or more; inactive means T/C below 125% in these data.
Tested on: P388 leukemia ip, CD2F1 mice, survival T/C
Experiment: NCI In Vivo Anticancer Drug Screen. Data for tumor model P388 Leukemia (intraperitoneal) in CD2F1 (CDF1) mice
Settings: endpoint: median survival time, higher = longer survival
Summary of the method: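 Mice carrying the transplanted tumor received test compound or vehicle. Survival was recorded in each group, and the value is the treated-group measurement divided by that of the vehicle-treated control group.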

[1] = dose: 50.0 mg/kg/injection, schedule: Q01DX005 (ip), vehicle: saline
[2] = dose: 100.0 mg/kg/injection, schedule: Q01DX005 (ip), vehicle: saline
[3] = dose: 200.0 mg/kg/injection, schedule: Q01DX005 (ip), vehicle: saline
[4] = dose: 25.0 mg/kg/injection, schedule: Q01DX001 (ip), vehicle: Klucel (hydroxypropylcellulose) (HPC)
[5] = dose: 50.0 mg/kg/injection, schedule: Q01DX001 (ip), vehicle: Klucel (hydroxypropylcellulose) (HPC)
[6] = dose: 60.0 mg/kg/injection, schedule: Q01DX005 (ip), vehicle: saline
[7] = dose: 120.0 mg/kg/injection, schedule: Q01DX005 (ip), vehicle: saline
[8] = dose: 50.0 mg/kg/injection, schedule: Q01DX005 (ip), vehicle: saline with Tween-80
[9] = dose: 100.0 mg/kg/injection, schedule: Q01DX005 (ip), vehicle: saline with Tween-80
[10] = dose: 200.0 mg/kg/injection, schedule: Q01DX005 (ip), vehicle: saline with Tween-80
[11] = dose: 100.0 mg/kg/injection, schedule: Q04DX003 (ip), vehicle: Klucel (hydroxypropylcellulose) (HPC)
[12] = dose: 200.0 mg/kg/injection, schedule: Q04DX003 (ip), vehicle: Klucel (hydroxypropylcellulose) (HPC)
[13] = dose: 400.0 mg/kg/injection, schedule: Q04DX003 (ip), vehicle: Klucel (hydroxypropylcellulose) (HPC)
[14] = dose: 60.0 mg/kg/injection, schedule: Q01DX005 (ip), vehicle: saline with Tween-80
[15] = dose: 120.0 mg/kg/injection, schedule: Q01DX005 (ip), vehicle: saline with Tween-80
[16] = dose: 240.0 mg/kg/injection, schedule: Q01DX005 (ip), vehicle: saline with Tween-80
[17] = dose: 50.0 mg/kg/injection, schedule: Q01DX009 (ip), vehicle: Klucel (hydroxypropylcellulose) (HPC)
[18] = dose: 100.0 mg/kg/injection, schedule: Q01DX009 (ip), vehicle: Klucel (hydroxypropylcellulose) (HPC)

Measured: T/C

CC(=O)C(N)CC(C)C (centres undefined)
inactive: [1] 98 % of control | [2] 100 % of control | [3] 107 % of control

[CH3][Sn]([c]1ccccc1)[c]1ccccc1
inactive: dose: 50.0 mg/kg/injection, schedule: Q01DX009 (ip), vehicle: saline 105 % of control | dose: 100.0 mg/kg/injection, schedule: Q01DX009 (ip), vehicle: saline 98 % of control | dose: 200.0 mg/kg/injection, schedule: Q01DX009 (ip), vehicle: saline 113 % of control

C=C(C)C(=O)N/C(N)=N\C(N)=O
inactive: [1] 98 % of control | [2] 101 % of control | [3] 112 % of control

C=C1COC(=O)[C@@]12CC[C@@]1(C)[C@@H](CC[C@@H]3[C@@H]1CC[C@]1(C)C([C@H](C)CCCC(C)C)CC[C@@H]31)C2 (some centres undefined)
inactive: dose: 100.0 mg/kg/injection, schedule: Q01DX001 (ip), vehicle: saline with Tween-80 96 % of control | dose: 200.0 mg/kg/injection, schedule: Q01DX001 (ip), vehicle: saline with Tween-80 93 % of control | dose: 400.0 mg/kg/injection, schedule: Q01DX001 (ip), vehicle: saline with Tween-80 91 % of control

CC1C2OC(=O)C1(C)c1ccccc1C2=O (centres undefined)
inactive: dose: 12.5 mg/kg/injection, schedule: Q01DX001 (ip), vehicle: Klucel (hydroxypropylcellulose) (HPC) 109 % of control | [4] 99 % of control | [5] 103 % of control

Cc1oc2ccccc2c(=O)c1CN1CCOCC1
inactive: [6] 101 % of control | [7] 103 % of control

CCN(CC)CCCCCCCCOC(=O)c1cc(OC)c(OC)c(OC)c1
inactive: dose: 12.5 mg/kg/injection, schedule: Q01DX005 (ip), vehicle: saline 101 % of control | dose: 25.0 mg/kg/injection, schedule: Q01DX005 (ip), vehicle: saline 97 % of control | [1] 96 % of control | [6] 99 % of control

O=C1NC(O)c2cccc([N+](=O)[O-])c2O1 (centres undefined)
inactive: [8] 100 % of control | [9] 105 % of control | [10] 110 % of control

Clc1ccc(CN2COc3c(cc(Cl)c4cccnc34)C2)cc1
inactive: [11] 88 % of control | [12] 91 % of control | [13] 106 % of control

CC1(C)N=C(N)N=C(N)N1c1cccc(OCCOc2ccccc2[N+](=O)[O-])c1
inactive: [14] 104 % of control | [15] 95 % of control | [16] 98 % of control

COc1ccccc1NC(=O)CC(=O)N1N=C(N(c2ccccc2)c2ccccc2)CC1c1ccccc1 (centres undefined)
inactive: [14] 108 % of control | [15] 107 % of control | [16] 96 % of control

N#Cc1ccc[nH]c1=S
inactive: dose: 50.0 mg/kg/injection, schedule: Q01DX009 (ip), vehicle: saline with Tween-80 95 % of control | dose: 100.0 mg/kg/injection, schedule: Q01DX009 (ip), vehicle: saline with Tween-80 102 % of control | dose: 200.0 mg/kg/injection, schedule: Q01DX009 (ip), vehicle: saline with Tween-80 104 % of control

CC(=O)OCCNc1n[nH]c(=O)c2cnccc12
inactive: dose: 30.0 mg/kg/injection, schedule: Q01DX005 (ip), vehicle: saline with Tween-80 110 % of control | [14] 104 % of control | [15] 101 % of control | [16] 103 % of control

COC(=O)c1c(C(N)=O)c(C)n(NC(=O)Nc2ccccc2)c1C
inactive: [8] 96 % of control | [9] 89 % of control | [10] 94 % of control

C[N+](C)(Cc1cccc(Cl)c1)c1nnn[n-]1
inactive: [11] 98 % of control | [12] 101 % of control | [13] 107 % of control

ICC1CCCCC1CI (centres undefined)
inactive: [8] 106 % of control | [9] 99 % of control | [10] 104 % of control

COC(=O)CC1(C(=O)OC)C2CCCN2C2(C#N)c3ccccc3CCC12Br (centres undefined)
inactive: dose: 100.0 mg/kg/injection, schedule: Q01DX001 (ip), vehicle: saline 111 % of control | dose: 200.0 mg/kg/injection, schedule: Q01DX001 (ip), vehicle: saline 117 % of control | dose: 400.0 mg/kg/injection, schedule: Q01DX001 (ip), vehicle: saline 104 % of control

CC(C)(C)SC(=O)C1(C(OC(=O)c2ccccc2)c2ccccc2)CC1 (centres undefined)
inactive: [11] 96 % of control | [12] 100 % of control | [13] 89 % of control

Cc1nc(C)c(Cl)c(OS(=O)(=O)CCCCl)c1Cl
inactive: dose: 25.0 mg/kg/injection, schedule: Q01DX009 (ip), vehicle: Klucel (hydroxypropylcellulose) (HPC) 110 % of control (2×) and 92 % of control | dose: 35.0 mg/kg/injection, schedule: Q01DX009 (ip), vehicle: Klucel (hydroxypropylcellulose) (HPC) 110 % of control and 95 % of control | [17] 105 % of control and 120 % of control and 95 % of control | dose: 75.0 mg/kg/injection, schedule: Q01DX009 (ip), vehicle: Klucel (hydroxypropylcellulose) (HPC) 94 % of control

S=C(Nc1ccc(N=Nc2ccccc2)cc1)SCc1ccccc1
inactive: dose: 100.0 mg/kg/injection, schedule: Q04DX003 (ip), vehicle: saline 98 % of control | dose: 200.0 mg/kg/injection, schedule: Q04DX003 (ip), vehicle: saline 92 % of control | dose: 400.0 mg/kg/injection, schedule: Q04DX003 (ip), vehicle: saline 91 % of control

COc1ccc(Cc2coc3ccccc3c2=O)cc1
inactive: [14] 102 % of control | [15] 92 % of control | [16] 100 % of control

Clc1ccc(-n2ccc(=N/N=C/c3ccc(Cl)c(Cl)c3)cc2)cc1
inactive: [4] 100 % of control | [5] 100 % of control | dose: 100.0 mg/kg/injection, schedule: Q01DX001 (ip), vehicle: Klucel (hydroxypropylcellulose) (HPC) 100 % of control and 96 % of control

COC(=O)c1cc2[n+](cc1C(=O)OC)CCc1cc3c(cc1-2)OCO3
inactive: dose: 0.63 mg/kg/injection, schedule: Q01DX009 (ip), vehicle: water 99 % of control | dose: 1.25 mg/kg/injection, schedule: Q01DX009 (ip), vehicle: water 97 % of control | dose: 2.5 mg/kg/injection, schedule: Q01DX009 (ip), vehicle: water 97 % of control | dose: 5.0 mg/kg/injection, schedule: Q01DX009 (ip), vehicle: water 106 % of control | dose: 10.0 mg/kg/injection, schedule: Q01DX009 (ip), vehicle: water 99 % of control | dose: 20.0 mg/kg/injection, schedule: Q01DX009 (ip), vehicle: water 92 % of control

COc1ccc(NC(CCN2CCN(c3ccccc3)CC2)=NC(C)(C)C)cc1
inactive: [17] 96 % of control | [18] 96 % of control

Cc1nc(N)[nH]c(=O)c1CCc1ccccc1
inactive: [6] 97 % of control | [7] 99 % of control | dose: 240.0 mg/kg/injection, schedule: Q01DX005 (ip), vehicle: saline 98 % of control

Cc1ccc(C(=O)CC(=O)Nc2cc([N+](=O)[O-])ccc2OCCOc2ccc(C(C)(C)CC(C)(C)C)cc2)cc1
inactive: dose: 18.75 mg/kg/injection, schedule: Q04DX003 (ip), vehicle: saline sonified 109 % of control | dose: 37.5 mg/kg/injection, schedule: Q04DX003 (ip), vehicle: saline sonified 90 % of control | dose: 75.0 mg/kg/injection, schedule: Q04DX003 (ip), vehicle: saline sonified 109 % of control

CCOC(=O)CC(=O)Nc1cc2ccc(OC)c(OC)c2cc1C(=O)OCC
inactive: dose: 25.0 mg/kg/injection, schedule: Q01DX009 (ip), vehicle: other 88 % of control | dose: 50.0 mg/kg/injection, schedule: Q01DX009 (ip), vehicle: other 88 % of control | dose: 100.0 mg/kg/injection, schedule: Q01DX009 (ip), vehicle: other 96 % of control | dose: 200.0 mg/kg/injection, schedule: Q01DX009 (ip), vehicle: other 87 % of control | dose: 400.0 mg/kg/injection, schedule: Q01DX009 (ip), vehicle: other 105 % of control

CC1Cc2nc3ccccc3nc2C1
inactive: [14] 99 % of control | [15] 99 % of control | [16] 104 % of control

Cc1ccc(S(=O)(=O)NCCN(C)C)cc1
inactive: [17] 99 % of control | [18] 99 % of control | dose: 200.0 mg/kg/injection, schedule: Q01DX009 (ip), vehicle: Klucel (hydroxypropylcellulose) (HPC) 102 % of control | dose: 400.0 mg/kg/injection, schedule: Q01DX009 (ip), vehicle: Klucel (hydroxypropylcellulose) (HPC) 101 % of control

— PubChem BioAssay AID330 (DTP/NCI, 2004)
